Data from US12564635B2, “Long-lived gadolinium based tumor targeted imaging and therapy agents” (WISCONSIN ALUMNI RESEARCH FOUNDATION, priority 2015, dated 2026).

Legend:
[1] = at this field strength (4.7 T); cited from earlier work
[2] = Free Gd concentration by CHELEX solid phase extraction and ICP-MS; type: physicochemical; settings: CHELEX solid phase extraction, magnetic sector ICP-MS
Excerpt: After considering other alternatives, we decided to determine free Gd concentration by selective chelation and separation of the free Gd. We separated the Gd-DO3A-404 complex from free Gd (III) ion by CHELEX® solid phase extraction (as described by Raju, et al., J. Anal. At. Spectrom. 25 (2010), 1573-1580). Specifically, using a CHELEX® solid phase extraction column comprising an immobilized ligand (iminodiacetate) with very high affinity for free ion species of multi-valent transition and rare-earth metals, Gd was retained and then eluted using a known ratio of chelated Gd-DO3A-404 and acid-digested Gd-DO3A-404. The sample was the analyzed by magnetic sector ICP-MS to determine the concentration of free Gd.

[3] = MR relaxivity (r1, r2) at 4.7 T; type: physicochemical
Method: For initial studies, relaxivity was measured at 4.7 T. Longitudinal relaxivity, which is defined by the linear relationship between R1 relaxation rate and concentration, was measured using an inversion recovery spin echo sequence.
Higher relaxivity results in brighter signal on a T1-weighted image, and thus indicates greater T1-weighted signal enhancement potential. […]
Similarly, by plotting R2 versus concentration at five different concentrations of the Gd-DOTA-404 agent and determining the equation of the resulting line (see FIG. 3, right panel), we calculated a transverse relaxivity in plasma of 20.4 s−1/mM.

[4] = test system: flank A549 tumor (human non small cell lung cancer) xenograft; assay: In vivo MRI of flank A549 xenograft mice; set-up: species or system mouse
Method: For proof-of-concept in vivo imaging of tumor uptake of the Gd-DO3A-404 agent, nude athymic mouse with a flank A549 tumor (non small cell lung cancer) xenograft was scanned. […] Mice were anesthetized and scanning performed prior to contrast administration and at 1, 4, 24, 48, and 72 hours following contrast delivery. Imaging was performed on a 4.7 T Varian preclinical MRI scanner with a volume quadrature coil. T1-weighted images were acquired at all imaging time points using a fast spin echo scan with the following pulse sequence parameters: repetition time (TR)=206 ms, echo spacing=9 ms, echo train length=2, effective echo time (TE)=9 ms, 10 averages, with a 40×40 mm^2 field of view, 192×192 matrix, 10 slices of thickness lmm each.

[5] = In vivo biodistribution by T1-weighted SPGR MRI of the abdomen; set-up: species or system mouse; settings: 2.5 mg intravenous
Method: In this example, we determined the in vivo biodistribution of the Gd-DO3A-404 after the contrast agent was administered (see Example 5). During the course of performing the experiments described in Example 4, we also acquired T1-weighted spoiled gradient (SPGR) images in the abdomen of the mice, to observe biodistribution. Abdominal cross-sections imaged included the myocardium (FIGS. 8-12, top image), the liver (FIGS. 8-12, center image), and a kidney (FIGS. 8-12, bottom image). Images are shown pre-contrast (FIG. 8), and at one hour (FIG. 9), 24 hours (FIG. 10), four days (FIG. 11) and seven days post-contrast (FIG. 12).

[6] = test system: orthotopic glioblastoma stem cell line 12.6; assay: Brain tumor uptake by MRI in orthotopic glioblastoma model; type: in vivo, mouse
Method: To investigate the use of Gd-DO3A-404 to detect tumors and metastases in situ, in particular, in the brain, we created an orthotopic glioblastoma model using cancer stem cells injected into the brain. To create the model, brains of mice were injected with cells from orthotopic glioblastoma stem cell line 12.6. After sufficient tumor growth, monitored with T2-weighted MRI, we imaged subjects pre-contrast and after delivery (24-72 hours) of two different doses of Gd-DO3A-404 (2.5 or 3.7 mg; ˜0.12−0.18 mmole/kg).

A549 flank tumor = assay: Tissue biodistribution by SF-ICPMS in A549-flank bearing mice; type: in vivo, mouse; settings: 72 hours after administration; FIG. 16
Method: In this extension of Example 6, we further examined the in vivo biodistribution of Gd-DO3A-404 after it is administered. Specifically, tissue biodistribution was measured in A549-flank bearing mice 72 hours after administration of Gd-DO3A-404. Nude athymic mice were sacrificed, perfused and tissues were collected and quantitated for Gd by high-resolution (magnetic-sector) inductively-coupled plasma mass spectrometry (SF-ICPMS). n=3 mice.

[7] = test system: Alpha-beta crystalline overexpressing mice (triple negative breast cancer model); assay: MRI uptake in triple-negative breast cancer model; type: in vivo, mouse; settings: over 48 hours post-administration; FIG. 17
Method: Alpha-beta crystalline overexpressing mice (a triple negative breast cancer model) underwent MR imaging pre administration and 24 hours and 48 hours post-administration of […] (n=4).

[8] = test system: orthotopic U87 xenografts; assay: MRI uptake in orthotopic U87 xenografts; type: in vivo, mouse; settings: NOD-SCID mice; 24 and 48 hours post administration; FIG. 18 left
Method: NOD-SCID mice with orthotopic U87 xenografts were imaged pre-administration, 24 hours, and 48 hours post administration of Gd-DO3A-404.

[9] = test system: Orthotopic GSC 115 (human glioma stem cell model); assay: MRI uptake in orthotopic GSC 115 model; type: in vivo; settings: 24 hours post administration; FIG. 18 right
Method: Orthotopic GSC 115 was imaged at 24 hours post administration of Gd-DO3A-404. GSC is a human glioma stem cell model which was isolated from a human glioma patient.

[10] = test system: flank U87 (human glioma) xenograft; assay: Simultaneous PET/MR imaging of U87 flank xenograft rat; type: in vivo
Method: Simultaneous imaging was performed using a clinical Pet/MRI scanner. ^64Cu-DO3A-404 has the same structure as Gd-DO3A-404, except that ^64Cu, a positron emitting radionuclide, is chelated to the chelating moiety instead of Gd. ^64Cu-DO3A-404 was synthesized (and can be synthesized using the methods disclosed herein; see, e.g., Example 1). Both the ^64Cu-DO3A-404 and Gd-DO3A-404 chelates were injected simultaneously into a rat with a flank U87 (human glioma) xenograft.
T1-weighted scans of the U87 flank xenograft were obtained using the clinical 3.0 T PET/MR. Rats were imaged pre- and 24 hours post-administration of the Gd-DO3A-404.
Simultaneous PET/MR scans of the U87-flank bearing rat 24 hours post-simultaneous administration of both Gd-DO3A-404 (the MRI contrast agent) and ^64Cu-DO3A-404 (the PET contrast agent) were obtained.

[11] = test system: flank U87 (human glioma) tumor; assay: In vivo MRI of flank U87 xenograft mice
Method: To test uptake and retention in rodent models of human cancer, flank xenografts were established in mice for two distinct tumor types, A549 (human non small cell lung cancer, NSCLC) and U87 (human glioma). N=3 for each model. For pre-contrast imaging, T1-W images of the tumor and abdomen (FIG. 4; 2 leftmost images) and T1 maps of the tumor were obtained.
At time zero (“contrast”), 2.5 mg of Gd-DO3A-404 (˜12 mmol/kg body mass) was delivered into the mice by intravenous injection. Animals were scanned pre-contrast and at various time points between one hour and seven days post-contrast (after one hour, 24 hours, 48 hours, three days, four days and seven days). T1 maps of the tumor were acquired for each time point, along with T1-weighted images of the tumor and the abdomen (see FIGS. 4 and 5).
We the quantified the tumor to muscle ratio and compare it to baseline scans.

For `CNC[C@H](O)[C@@H](O)[C@H](O)[C@H](O)CO.O=C([O-])CN1CCN(CC(=O)[O-])CCN(CC(=O)O)CCN(CC(=O)[O-])CC1.[Gd+3]` [DOTAREM®], the “relaxivities of clinical T1 shortening contrast agents” value [1] is listed as 2 to 3 s⁻¹ mM⁻¹.
For `C[N+](C)(C)CCOP(=O)([O-])OCCCCCCCCCCCCCCCCCCc1ccc(NC(=O)CN2CCN(CC(=O)[O-])CCN(CC(=O)[O-])CCN(CC(=O)[O-])CC2)cc1.[Gd+3]` [Gd-DO3A-404], the “free Gd concentration” value [2] was 0.081%, the “Longitudinal relaxivity (r1)” value ([3]; in excipient) was 5.84 s⁻¹ mM⁻¹ and the “Longitudinal relaxivity (r1)” value ([3]; in plasma) was 5.74 s⁻¹ mM⁻¹. For the same compound, the “Longitudinal relaxivity (r1)” value ([3]; in saline) was 5.68 s⁻¹ mM⁻¹, the “tumor to muscle T1-weighted signal ratio following delivery” value ([4]; 2.5 mg intravenous, A549, versus pre-contrast, FIG. 6) was “approximately doubled” and the “time of maximum tumor uptake” value ([4]; 2.5 mg intravenous, NSCLC model, FIG. 4) was 24-48 hours post-contrast. For the same compound, the “duration of tumor uptake” value ([4]; 2.5 mg intravenous, NSCLC model, FIG. 5) was “maintained over several days”, the “MRI imaging of the tumor (T1-weighted enhancement)” value ([4]; 2.7 mg via tail vein injection, scans 1-72 hours, FIG. 2) was “significantly enhanced by 24 hours post-injection” and the “tumor R1 relaxation rate” value ([4]; A549, 48 hours post-contrast versus pre-contrast, FIG. 7) was “significantly increased”. For the same compound, the P-kinetic profile [5] was “including hepatobiliary excretion, that is similar to that of related alkylphosphocholine analogs”, the “circulation in the myocardium and blood pool” value ([5]; FIGS. 8-12) was “circulates for nearly up to a day” and the “clearance from liver and kidney” value ([5]; up to seven days, FIGS. 8-12) was “substantially cleared over time, with more rapid clearance occurring through the liver, and more prolonged clearance occurring through the kidney”. For the same compound, the brain tumor uptake ([6]; increased dose 3.7 mg, FIG. 15 bottom panel) was “uptake in one subject”, the brain tumor uptake ([6]; lower dose 2.5 mg, FIG. 15 upper panel) was “no brain uptake was observed” and the “tissue biodistribution (Gd by SF-ICPMS)” value (A549 flank tumor) was “selectively taken up by tumor tissue”. The “uptake in breast cancer tissue by MRI” value [7] was “taken up by and localized to the breast cancer tissue”, the “tumor uptake by T1-weighted MRI” value [8] was “differentially taken up by the tumor tissue” and the “tumor uptake by T1-weighted MRI” value [9] was “differentially taken up by the tumor tumor tissue”. For the same compound, the “tumor uptake by T1-weighted MR (clinical 3.0 T PET/MR)” value ([10]; 24 hours post-administration, FIG. 19) was “selective tumor uptake”, the “tumor enhancement in MRI images (simultaneous PET/MR)” value ([10]; 24 hours post-simultaneous administration, FIG. 20) was “enhanced enhances in both the T1 and T2 MRI images” and the “tumor to muscle T1-weighted signal ratio following delivery” value ([11]; 2.5 mg intravenous, U87, versus pre-contrast, FIG. 6) was “approximately doubled”. For the same compound, the “onset of tumor uptake” value ([11]; 2.5 mg intravenous, U87 model, FIG. 4) was “already observable at one hour after delivery”, the “level and duration of tumor uptake compared with NSCLC model” value ([11]; 2.5 mg intravenous, U87 model, FIG. 5) was “appeared to reach higher levels and was maintained for a longer time period” and the “tumor R1 relaxation rate” value ([11]; U87, 48 hours post-contrast versus pre-contrast, FIG. 7) was “significantly increased”.
